# Test results reported in article PMC8514580, “Insight into the interaction between the RNA helicase CGH-1 and EDC-3 and its implications” (Scientific Reports, 2021).
# Positions count from the first letter of the chain named. No end group written: not given here.
# Legend:
# CGH-1_248-420^Q266A = biological target: T1, CGH-1_248-420^Q266A (Caenorhabditis elegans, UniProt Q95YF3, Q266A); test: ITC binding to CGH-1_248–420 Q266A; parameters: species or system C. elegans; conditions: 20 °C, pH 7.5, 150 mM NaCl, CGH-1 Q266A
# T1 construct: the cDNA fragments encoding CGH-1 RecA2 (residues 248–420); made in house; host or cells: E. coli Gold (DE3)
# T1 sequence (Q95YF3 248-420 Q266A): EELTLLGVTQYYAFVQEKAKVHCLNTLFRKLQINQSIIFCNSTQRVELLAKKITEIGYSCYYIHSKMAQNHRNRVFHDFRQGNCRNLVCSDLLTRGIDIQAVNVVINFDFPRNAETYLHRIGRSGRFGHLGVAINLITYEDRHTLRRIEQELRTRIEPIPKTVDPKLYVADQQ
# Experimental: (§1) Expression plasmids regarding CGH-1 and CAR-1 were constructed as previously described. In brief, the cDNA fragments encoding CGH-1 RecA2 (residues 248–420), CAR-1 FDF-TFG (residues 184–268) were amplified by PCR from C. elegans genome library and cloned into the NdeI and XhoI site of a modified pET-28a (Novagen) vector (p28a), in which a thrombin protease cleavage site was removed.
# (§2) CGH-1 protein expression and purification were performed described as in our most recent paper. In brief, proteins were expressed in E. coli Gold (DE3) strain (Novagen). […] Cells were resuspended in Buffer A (20 mM Tris–HCl, pH 7.5, 1 M NaCl), and then lysed using high pressure at 4 °C. Proteins were initially purified by Ni-chelating resin (Qiagen), and further purified by size exclusion chromatography (SEC) on a Superdex 75 column (GE healthcare) in Buffer A. The purified proteins were dialyzed into Buffer B (20 mM Tris–HCl, pH 7.5, 150 mM NaCl).
# (§3) A peptide containing the C. elegans EDC-3 FDF fragment (residues 235–271) and PATR-1 fragment (residues 30–67) were synthesized from GL Biochem (Shanghai, China) Co., Ltd, respectively. Stock solutions of peptide were prepared in Buffer B described above, and were adjusted to pH 7.5 ± 0.02 for subsequent experiments.
# (§4) ITC assays were performed as previously described. […]
# CGH-1_248-420^E396A = biological target: T2, CGH-1_248-420^E396A (Caenorhabditis elegans, UniProt Q95YF3, E396A); test: ITC binding to CGH-1_248–420 E396A; parameters: species or system C. elegans; conditions: 20 °C
# T2 construct: the cDNA fragments encoding CGH-1 RecA2 (residues 248–420); made in house; host or cells: E. coli Gold (DE3)
# T2 sequence (Q95YF3 248-420 E396A): as the sequence (Q95YF3 248-420 Q266A) above, with A19Q, E149A counted along it
# Experimental: as §1, §2, §3, §4
# CGH-1_248-420^K277E = biological target: T3, CGH-1_248-420^K277E (Caenorhabditis elegans, UniProt Q95YF3, K277E); test: ITC binding to CGH-1_248–420 K277E; parameters: species or system C. elegans; conditions: 20 °C
# T3 construct: the cDNA fragments encoding CGH-1 RecA2 (residues 248–420); made in house; host or cells: E. coli Gold (DE3)
# T3 sequence (Q95YF3 248-420 K277E): as the sequence (Q95YF3 248-420 Q266A) above, with A19Q, K30E counted along it
# Experimental: as §1, §2, §3, §4
# CGH-1_248-420^H269A = biological target: T4, CGH-1_248-420^H269A (Caenorhabditis elegans, UniProt Q95YF3, H269A); test: ITC binding to CGH-1_248–420 H269A; parameters: species or system C. elegans; conditions: 20 °C, pH 7.5, 150 mM NaCl, CGH-1 H269A
# T4 construct: the cDNA fragments encoding CGH-1 RecA2 (residues 248–420); made in house; host or cells: E. coli Gold (DE3)
# T4 sequence (Q95YF3 248-420 H269A): as the sequence (Q95YF3 248-420 Q266A) above, with A19Q, H22A counted along it
# Experimental: as §1, §2, §3, §4
# CGH-1_248-420^4A = biological target: T5, CGH-1_248-420^4A (Caenorhabditis elegans, UniProt Q95YF3, C270A/H269A/L274A/T273A); test: ITC binding to CGH-1_248–420 4A (H269A, C270A, T273A, L274A); parameters: species or system C. elegans; conditions: CGH-1 4A vs WT
# T5 construct: the cDNA fragments encoding CGH-1 RecA2 (residues 248–420); made in house; host or cells: E. coli Gold (DE3)
# T5 sequence (Q95YF3 248-420 H269A/C270A/T273A/L274A limits assumed): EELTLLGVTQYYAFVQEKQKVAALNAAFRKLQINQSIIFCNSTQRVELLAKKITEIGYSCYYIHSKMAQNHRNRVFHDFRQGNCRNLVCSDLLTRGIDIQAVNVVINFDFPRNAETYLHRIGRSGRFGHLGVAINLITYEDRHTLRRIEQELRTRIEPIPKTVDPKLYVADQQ
# Experimental: as §1, §2, §3
# (§5) ITC assays were performed as previously described. In brief, it was carried out on a MicroCal PEAQ-ITC (Malvern) at 20 °C with the following settings: reference power, 5 μcal/s; initial delay, 60 s; stir speed, 750 rpm; spacing time, 120 s. Proteins (or its mutants) and peptides were adjusted to 0.05 mM and 0.5 mM, respectively. Experiments were initialed by injection of 1 μl each of peptide into the sample cell (200 μl) filled with protein (or its mutants) solution, followed by 18 injections of 2 μl. The ITC data were fitted with a one-binding-site model using the Origin analysis software.
# CGH-1_248-420^WT = biological target: T6, CGH-1_248-420^WT (Caenorhabditis elegans, UniProt Q95YF3); test: ITC binding to CGH-1_248–420 WT; parameters: species or system C. elegans
# T6 construct: the cDNA fragments encoding CGH-1 RecA2 (residues 248–420); made in house; host or cells: E. coli Gold (DE3)
# T6 sequence (Q95YF3 248-420): T5 sequence (Q95YF3 248-420 H269A/C270A/T273A/L274A limits assumed) with A22H, A23C, A26T, A27L
# Experimental: as §1, §2, §3, §5
# CGH-1_248–420 mutants = test: ITC binding to several CGH-1_248–420 single mutants; parameters: species or system C. elegans; conditions: substitution of each of Phe261, Gln266, His269 with Ala
# Experimental: as §1, §2, §3, §4
# CGH-1_248-420^F261A = biological target: T7, CGH-1_248-420^F261A (Caenorhabditis elegans, UniProt Q95YF3, F261A); assay type: binding, C. elegans; conditions: ITC, 20 °C, pH 7.5, 150 mM NaCl; CGH-1 F261A
# T7 construct: the cDNA fragments encoding CGH-1 RecA2 (residues 248–420); made in house; host or cells: E. coli Gold (DE3)
# T7 sequence (Q95YF3 248-420 F261A): as the sequence (Q95YF3 248-420 Q266A) above, with F14A, A19Q counted along it
# Experimental: as §1, §2, §3, §5
# CGH-1_248-420^R393A = biological target: T8, CGH-1_248-420^R393A (Caenorhabditis elegans, UniProt Q95YF3, R393A); assay type: binding, C. elegans; conditions: ITC, 20 °C
# T8 construct: the cDNA fragments encoding CGH-1 RecA2 (residues 248–420); made in house; host or cells: E. coli Gold (DE3)
# T8 sequence (Q95YF3 248-420 R393A): as the sequence (Q95YF3 248-420 Q266A) above, with A19Q, R146A counted along it
# Experimental: as §1, §2, §3, §5
# CGH-1_248-420^K277A = biological target: T9, CGH-1_248-420^K277A (Caenorhabditis elegans, UniProt Q95YF3, K277A); assay type: binding, C. elegans; conditions: ITC, 20 °C
# T9 construct: the cDNA fragments encoding CGH-1 RecA2 (residues 248–420); made in house; host or cells: E. coli Gold (DE3)
# T9 sequence (Q95YF3 248-420 K277A): as the sequence (Q95YF3 248-420 Q266A) above, with A19Q, K30A counted along it
# Experimental: as §1, §2, §3, §5
sequence,measurement,setting,value
LADPIDFDLDSDFDFAENLKLFEKDENDDQYYETVEK [EDC-3_235–271],− TΔS,CGH-1_248-420^Q266A,18.2 kJ/mol
same,KD(mut) / KD(wt),CGH-1_248-420^E396A; CGH-1 E396A vs WT,~ 2.5
same,− TΔS,"CGH-1_248-420^E396A; pH 7.5, 150 mM NaCl, CGH-1 E396A",33.1 kJ/mol
same,KD(mut) / KD(wt),CGH-1_248-420^K277E; CGH-1 K277E vs WT,~ 17.5
same,− TΔS,"CGH-1_248-420^K277E; pH 7.5, 150 mM NaCl, CGH-1 K277E",18.7 kJ/mol
same,− TΔS,CGH-1_248-420^H269A,20.8 kJ/mol
same,KD(mut) / KD(wt),CGH-1_248-420^4A; 20 °C,~ 25.7
same,binding affinity compared to wildtype (in words),CGH-1_248-420^4A,dramatically impaired the binding affinity
same,binding affinity compared to wildtype (in words),CGH-1_248-420^4A; listed as EDC-3 peptide,dramatically disrupted the interaction
same,Kd,CGH-1_248-420^WT,0.34 ± 0.02 µM
same,− TΔS,"CGH-1_248-420^WT; ITC, 20 °C, pH 7.5, 150 mM NaCl, CGH-1_248–420 WT",37.4 kJ/mol
same,binding affinity of EDC-3 FDF-FEK motif relative to corresponding region of CAR-1 (by KD),"CGH-1_248-420^WT; ITC, CGH-1_248–420, 0.34 μM (this work) vs 43 μM (ref 17)",> 126 times
same,binding affinity relative to CAR-1_184–268 (by KD),"CGH-1_248-420^WT; ITC, CGH-1_248–420 WT, 0.34 μM vs 3.03 μM",approximately ninefold stronger
same,"weakening of binding affinity, factor vs WT",CGH-1_248–420 mutants,3.4–7.5
same,− TΔS,CGH-1_248-420^F261A,25.8 kJ/mol
same,− TΔS,"CGH-1_248-420^R393A; pH 7.5, 150 mM NaCl, CGH-1 R393A",40.5 kJ/mol
same,KD(mut) / KD(wt),CGH-1_248-420^R393A; CGH-1 R393A vs WT,~ 6.1
same,− TΔS,"CGH-1_248-420^K277A; pH 7.5, 150 mM NaCl, CGH-1 K277A",32.4 kJ/mol
same,KD(mut) / KD(wt),CGH-1_248-420^K277A; CGH-1 K277A vs WT,~ 8.1
